The record followed here is article PMC4418728, “A High Throughput Protein Microarray Approach to Classify HIV Monoclonal Antibodies and Variant Antigens” (PLoS ONE, 2015).

No end group written: not given here.

By IC50 is commonly meant the concentration that gives 50% inhibition.

One experiment relates to mAb 2F5. The experiment is described as follows: In-solution competition ELISA. It counts as binding, human. The settings on record: competition with biotinylated peptide bio-57 (0.1 μg/ml) for mAb 2F5 (0.2 μg/ml), peptide 1:3 dilutions from 0.04 mM, 2 h at 37°C, duplicate, at least two experiments; for IC50: read-out: IC50 of competitor peptide, mAb 2F5. Here is the method:
(§1) The in-solution competition ELISA was performed according to Stanfield and colleagues. In brief, 96-well plates were coated o/n with 200 ng/well neutravidin (Pierce) in PBS at 4°C and blocked with 4% NFDM for 1 h at RT. Different competing MPER peptide analogs (serially diluted 1:3 in 1% NFDM at a starting concentration of 0.04 mM) were mixed with a constant concentration of biotinylated peptide bio-0705 (0.1 μg/ml) or bio-57 (0.1 μg/ml) and the corresponding human mAb 4E10 (0.5 μg/ml) or mAb 2F5 (0.2 μg/ml), respectively. The antibody/peptide mixture was incubated for 2 h at 37°C, subsequently transferred to the neutravidin plates and incubated at 37°C for 20 min. Bound antibodies were detected with HRP labeled goat anti human F(ab)2 conjugate (Pierce). After 1 h at RT, wells were developed, stopped and read as described above. The concentration of competitor peptide corresponding to a half-maximal signal (IC50) was determined by nonlinear fit interpolation of the resulting binding curve (GraphPad PRISM 5.0 software). Each peptide competitor was tested in duplicate in at least two separate experiments.
(ELISA stands for enzyme-linked immunosorbent assay.)

The test system of the next experiment is mAb 4E10. The experiment is described as follows: In-solution competition ELISA. The experiment is classed as binding, human. The settings on record: for IC50: read-out: IC50 of competitor peptide, mAb 4E10. On the procedure: as §1
The mark [1] stands for this setting: competition with biotinylated peptide bio-0705 (0.1 μg/ml) for mAb 4E10 (0.5 μg/ml), peptide 1:3 dilutions from 0.04 mM, 2 h at 37°C, duplicate, at least two experiments.

For the substance “ELDKWASLWNWFDITNWLWYIKIEELKSKIKRIENEIKRIKK [compound 09128]”, the concentration for half-maximal inhibition (IC50) in the experiment on mAb 2F5 was found to be 76.3 nM; in the experiment on mAb 4E10 (setting [1]), 0.9 nM. The “enhancement in IC50 compared to control peptide 94.1, mAb 4E10” value with mAb 4E10 (in-solution competition assay) is “more than 80 fold”.

With “ELDKWASLWNWFNITNWLWYIKIEELKSKIKRIENEIKRIKK [C22-pT, reference compound]”, the IC50 in the experiment on mAb 2F5 was over 10000 nM; with mAb 4E10 (setting [1]) it was 3270 nM.

In the case of “WTLNIFWIWSYLDWSNKKKK-NH2 [compound 08023, scrambled negative control peptide based on 09122]”, the “IC50 of competitor peptide, mAb 2F5” value with mAb 2F5 is on record as “did not interact”. The “IC50 of competitor peptide, mAb 4E10” value with mAb 4E10 (setting [1]) was “did not interact”.
